Experimental data: PubChem BioAssay (NCI)
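Assay format: 96-well plates, 48-hour exposure. TGI is the concentration that stops growth completely.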

What was measured:
Assay in all cases: inhibition of tumour cell growth, NCI panel, 48 h
OVCAR-3 ovarian = system: OVCAR-3 ovarian
CCRF-CEM leukemia = system: CCRF-CEM leukemia
SK-MEL-5 melanoma = system: SK-MEL-5 melanoma
HS 578T breast = system: HS 578T breast
786-0 renal = system: 786-0 renal
NCI-H23 lung = system: NCI-H23 lung
LOX IMVI melanoma = system: LOX IMVI melanoma
NCI-H460 lung = system: NCI-H460 lung
A498 renal = system: A498 renal
SW-620 colon = system: SW-620 colon
OVCAR-4 ovarian = system: OVCAR-4 ovarian
UACC-257 melanoma = system: UACC-257 melanoma
HCT-116 colon = system: HCT-116 colon
MDA-MB-231 breast = system: MDA-MB-231 breast
NCI/ADR-RES ovarian = system: NCI/ADR-RES ovarian
MOLT-4 leukemia = system: MOLT-4 leukemia
SR leukemia = system: SR leukemia
PC-3 prostate = system: PC-3 prostate
M14 melanoma = system: M14 melanoma
SF-539 CNS = system: SF-539 CNS
SNB-19 CNS = system: SNB-19 CNS
MDA-MB-435 = system: MDA-MB-435
HT29 colon = system: HT29 colon
DU-145 prostate = system: DU-145 prostate
SF-295 CNS = system: SF-295 CNS
HL-60(TB) leukemia = system: HL-60(TB) leukemia
TK-10 renal = system: TK-10 renal
MDA-N = system: MDA-N
NCI-H522 lung = system: NCI-H522 lung
SK-OV-3 ovarian = system: SK-OV-3 ovarian
U251 CNS = system: U251 CNS
UO-31 renal = system: UO-31 renal
HCC-2998 colon = system: HCC-2998 colon
OVCAR-8 ovarian = system: OVCAR-8 ovarian
IGROV1 ovarian = system: IGROV1 ovarian
SF-268 CNS = system: SF-268 CNS
T-47D breast = system: T-47D breast
RXF 393 renal = system: RXF 393 renal
SK-MEL-28 melanoma = system: SK-MEL-28 melanoma
OVCAR-5 ovarian = system: OVCAR-5 ovarian
MALME-3M melanoma = system: MALME-3M melanoma
HOP-62 NSCLC = system: HOP-62 NSCLC
A549 NSCLC = system: A549 NSCLC
K-562 leukemia = system: K-562 leukemia
RPMI-8226 leukemia = system: RPMI-8226 leukemia
HCT-15 colon = system: HCT-15 colon
SNB-75 CNS = system: SNB-75 CNS
EKVX NSCLC = system: EKVX NSCLC
ACHN renal = system: ACHN renal
SK-MEL-2 melanoma = system: SK-MEL-2 melanoma
MCF7 breast = system: MCF7 breast
HOP-92 NSCLC = system: HOP-92 NSCLC
SN12C renal = system: SN12C renal
CAKI-1 renal = system: CAKI-1 renal
BT-549 breast = system: BT-549 breast
KM12 colon = system: KM12 colon
NCI-H226 lung = system: NCI-H226 lung
COLO 205 colon = system: COLO 205 colon
UACC-62 melanoma = system: UACC-62 melanoma

Measured: TGI

COC(=O)CCc1ccc2c(c1)C(=O)CC2
99.9 µM: SNB-75 CNS
not listed: SN12C renal | CAKI-1 renal | BT-549 breast | KM12 colon | NCI-H226 lung | COLO 205 colon | UACC-62 melanoma
> 100 µM: all other assays above

CNC(=S)N/N=C(\C(=N/NC(=S)NC)c1ccccn1)c1ccccn1
> 83.2 µM: SF-295 CNS
99.1 µM: HS 578T breast
> 44.6 µM: ACHN renal
> 84.8 µM: 786-0 renal
> 69.6 µM: UO-31 renal
72.8 µM: NCI-H522 lung
> 75.1 µM: NCI-H226 lung
> 92.6 µM: SNB-75 CNS
> 63.6 µM: SF-268 CNS
24.5 µM: M14 melanoma
98 µM: MALME-3M melanoma
> 67.6 µM: SK-MEL-5 melanoma
> 53.5 µM: HOP-62 NSCLC
41.1 µM: RXF 393 renal
> 68.5 µM: NCI-H23 lung
not listed: OVCAR-3 ovarian | CCRF-CEM leukemia | NCI/ADR-RES ovarian | MOLT-4 leukemia | SR leukemia | HL-60(TB) leukemia | T-47D breast
> 100 µM: all other assays above

COC(=O)C1OC2(CCCC3CC32)O[C@H]1C(=O)OC (stereo partly drawn)
not listed: SK-MEL-5 melanoma | A498 renal | T-47D breast
> 100 µM: all other assays above

CC(=O)OCC1OC(OCCCCCCO)C(OC(C)=O)C(OC(C)=O)C1OC(C)=O (stereo not drawn)
not listed: SK-MEL-5 melanoma | 786-0 renal | DU-145 prostate | T-47D breast | MALME-3M melanoma | COLO 205 colon
> 100 µM: all other assays above
